row,Structure (SMILES),melting point
1,Cc1noc2ccc([N+](=O)[O-])cc12,84.5 to 86.5 °C
2,Oc1c(CCCBr)ccc2ccccc12,53 to 55 °C
3,NC(=O)c1ccc(N2CCN(CCCC3OCCc4ccccc43)CC2)cc1 (racemic),185 °C
4,O=Cc1cccnc1Oc1ccc(F)cc1,61 to 62 °C
5,O=C(Oc1ccc(Cl)cc1[N+](=O)[O-])c1ccccc1O,155 to 160 °C
6,Cc1cnc(C(=O)c2[nH]c3cc(Cl)ccc3c2CC(=O)O)cc1C,226 to 228 °C
7,CC(=O)Nc1nn(C)c2nc3n(c(=O)c12)CCS3,250 to 252 °C
8,C[C@@H](NC(=O)c1ccc(-c2ccc(Cl)cc2)s1)[C@](O)(Cn1cncn1)c1ccc(F)cc1F,169 to 170 °C
9,CC(=O)SC(CC(=S)c1ccc(-c2ccccc2)cc1)C(=O)O (stereo unspecified),116 to 118 °C
10,COC(=O)c1nc2cc(Cl)ccc2c(O)c1C(=O)OC,232 to 233 °C
11,CCOC(=O)C(C)O/N=C(\C(=O)O)c1csc(N)n1 (stereo unspecified),166 °C
12,CCCCn1c(=O)c2nn(S(=O)(=O)c3c(Cl)cc(Cl)cc3Cl)cc2n(CCCC)c1=O,89 to 92 °C
13,NC1CCCN(c2ncc3ncnc(Nc4ccc(F)c(Cl)c4)c3n2)C1 (stereo unspecified),172 to 175 °C
14,Cc1cc(Cc2cc(C)c(N=C=O)c(C)c2)cc(C)c1N=C=O,130 to 131 °C
15,c1ccc(C[C@@H]2CN3C(c4nnn[nH]4)=Nc4nc(C5CCCC5)[nH]c4C3=N2)cc1,268 to 270 °C
16,Cc1sc(N2CCCCC2)nc1CCl,79 to 80 °C
17,Oc1[nH]nc2c1-c1ccc(Cl)cc1CC2,232 to 233 °C
18,O=C1CCCc2cc(O)c(Cl)c(Cl)c21,244 to 246 °C
19,CN1C(=O)C(NC(=O)Nc2ccc(Br)cc2)N=C(c2ccccc2)c2ccccc21 (stereo unspecified),286 to 287 °C
20,CCCCCC(=O)c1c(C)n(C(=O)OC)c(=O)n1C(=O)OC,84 to 86 °C
21,O=C1CCC(C(=O)OCc2ccc(Cl)cc2)N1 (stereo unspecified),119 to 120 °C
22,CC(C=CO)c1ccc(-c2ccc(Cl)cc2)cc1 (stereo unspecified),130 to 132 °C

row,Structure (SMILES),melting point
1,O=c1c(-c2cccs2)nc2ccccc2n1CC1CCCO1 (stereo unspecified),123 °C
2,Cc1noc(-c2ncn3c2[C@@H]2CCCN2C(=O)c2c(Cl)cccc2-3)n1,230 to 231 °C
3,Cc1cc(=O)c2[nH]c3ccccc3c2s1,295 to 296 °C
4,Cc1ccc([C@@H](Sc2cc(C)ccc2N)[C@H](O)C(N)=O)cc1,145 to 146 °C
5,O=c1cc(-c2ccncn2)nc2n1CCCN2,268 to 272 °C
6,CC1SC(c2cccnc2)NC1=O (stereo unspecified),110 °C
7,c1ccc2c(c1)Cc1c(-c3ccsc3)n[nH]c1-2,219 to 220 °C
8,CC(C)SC[C@@H](C[C@H](O)[C@H](CC1CCCCC1)C(=O)OC(C)(C)C)C(C)C,107 to 108 °C
9,COc1cc(I)c(C=O)cc1OC(C)C,75 to 76 °C
10,N#CCc1c(Cl)cccc1Br,82 to 84 °C
11,c1ccc(-c2cnc3c(c2)nnc2cncn23)cc1,225 to 227 °C
12,COc1cc2c(Nc3cc(OC)c(OC)c(OC)c3)c(C#N)cnc2cc1/C=C/CCO,184 to 185 °C
13,CCCCCCCCCCCCCCCCCCN1C(=O)c2ccccc2C1=O,78 to 79 °C
14,O=[N+]([O-])c1ccc(N=Nc2cc(OCCO)c(N(CCCO)CCCO)cc2OCCO)cc1,132 to 134 °C
15,C#CCCCOc1c(C)cc(C(=O)O)cc1C,129 to 130 °C
16,Cn1nc(-c2ncc(N)nc2-c2ccccc2)ccc1=O,202 to 204 °C
17,CCOC(=O)N1CCC(n2ccc3ccccc32)CC1,127 °C
18,c1ccc2ncc(N3CCNCC3)cc2c1,87.7 to 88.5 °C
19,O=Cc1ccc(N(CCO)CCO)cc1,63 to 64 °C
20,CC1=Nc2ccccc2N(Cc2ccccc2)C(=O)C1C/C=C/c1ccccc1 (stereo unspecified),152 to 154 °C
21,Oc1ccc2c(NCCN3CCOCC3)noc2c1,151 to 152 °C
22,O=[N+]([O-])c1cc(OCc2ccccc2)ccc1Cl,50 to 50.5 °C

row,Structure (SMILES),melting point
1,ON=C(c1cccc(F)c1)c1ccc(O)c(Cl)c1Cl,178 to 185 °C
2,COc1ccc2cc(Br)sc2c1,62 °C
3,N#CCc1ccc(CCOc2ccc([N+](=O)[O-])cc2)nc1,94 to 95 °C
4,CC(C)(C)OC(=O)N1CCC(c2nc3cc(-c4ccc(-c5nnn[nH]5)c(F)c4)ccc3o2)CC1,163 to 167 °C
5,Cc1cccc(C)c1CNc1cc(Br)cc2c1nc(C)n2C,185 °C
6,CCOC(=O)C1=C(C)NC(CF)=C(C(=O)OCC)C1c1ccccc1C(F)(F)F (stereo unspecified),84 to 86 °C
7,CCC(O)c1ccc(Cl)c2nc3n(c12)CCCN3c1ccc(Cl)cc1Cl (stereo unspecified),233 to 235 °C
8,CC=CC(=O)Nc1n[nH]c2ccc(C)cc12,218 °C
9,CCOC(=O)C(Cc1ccc2ccccc2n1)(OC1CCCCO1)C(=O)OCC (stereo unspecified),75 to 78 °C
10,CCc1[nH]nc(C(=O)NC2CCCC2)c1[N+](=O)[O-],156 to 157 °C
11,C=C(CN(C)C)C(O)c1ncc2c(c1O)COC2c1cccc(Cl)c1Cl (stereo unspecified),180 to 184 °C
12,COC(=O)c1ccc(CCC2CNc3nc(NC(=O)C(C)(C)C)nc(O)c3C2)[nH]1 (stereo unspecified),246 to 248 °C
13,Cc1ccc(S(=O)(=O)N=CN(C)C)cc1Br,162 °C
14,CN1C(=O)C(NC(=O)CCc2ccc(Cl)cc2Cl)N=C(c2ccccc2)c2ccncc21 (stereo unspecified),220 to 221 °C
15,O=C(O)c1ccc(Cl)cc1Nc1ccc(O)cc1,164 to 165 °C
16,CCOC(=O)C1=C(C)Nc2c(C(=O)O)ncn2C1c1cccc([N+](=O)[O-])c1 (stereo unspecified),222 °C
17,CS(=O)(=O)c1ccc(-c2cc(/C=C\CCO[N+](=O)[O-])nn2C2CCCCC2)cc1,129 to 130 °C
18,COC(=O)N=C(NC(=O)Nc1ccc(Cl)c(C(=O)OC(C)C)c1)SC,93 to 94 °C
19,Fc1ccc(C(Cl)(Cn2cncn2)C2(n3cncn3)CC2)cc1 (stereo unspecified),81 to 84 °C
20,COC(=O)C=CC(=CN(C)C)C(=O)OC,62 °C
21,Nc1nc2c(ncn2Cc2cccnc2)c(=O)[nH]1,> 300 °C

# The remaining lines, values ahead:
row,melting point,Structure (SMILES)
1,148 to 156 °C,COc1ccc(CC(=O)Nc2nc3c(ncn3C3CC(O)C(COC(c4ccccc4)(c4ccc(OC)cc4)c4ccc(OC)cc4)O3)c(=O)[nH]2)cc1 (stereo unspecified)
2,126 to 128 °C,COc1cc(C(C)C)c2c(c1)S(=O)(=O)N(COc1cc(-c3ccccc3)nn1C)C2=O
3,118 °C,CCN(CCCc1c[nH]c2ccc(F)cc12)C1COc2c(F)ccc(C(=O)NC)c2C1 (stereo unspecified)
4,236 to 237 °C,CCNC(=O)CC1CN=C(c2cc3cc(Oc4ccc(S(C)(=O)=O)nc4)cc(OC)c3[nH]2)S1 (stereo unspecified)
5,227 to 230 °C,COCc1cccc2oc(C(=O)Nc3ccc(-c4ccc(S(=O)(=O)NC(C(=O)O)C(C)C)cc4)cc3)c(C)c12 (stereo unspecified)
6,63 to 66 °C,COc1cccc2c1OCN(CCc1ccccc1)C2
7,130 to 132 °C,CCOC(=O)CC(C)NC(=O)c1ccc(N2CCN(c3ccncc3)CC2)cc1 (stereo unspecified)
8,221 °C,COc1cc(Cc2cnc(N3C(=O)c4ccccc4C3=O)nc2N)cc(OC)c1OC
9,198 to 201 °C,CNc1ccc(C(=O)c2ccccc2)cc1[N+](=O)[O-]
10,139 to 140 °C,O=C(N[C@@H](Cc1ccccc1)C(=O)Oc1cc(Cl)c(Cl)cc1Cl)OCc1ccccc1
11,169 to 170 °C,COc1ccc(CN2C(=O)C3(COc4cc5c(cc43)CCO5)c3c2ccc2ncccc32)cc1 (stereo unspecified)
12,250 to 251 °C,CCOc1cc2cc(CO)nc(-c3ccnc(-n4nc(-c5cc(OC)c(OC)c(OC)c5)c5sccc5c4=O)c3)c2cc1OCC
13,122 to 123 °C,O=C(c1ccccc1)c1ccc(OCc2ccccc2)cc1S
14,150 °C,COCn1ccnc1C(O)(c1ccccc1)c1ccc(F)cc1 (stereo unspecified)
15,105 to 108 °C,COC(=O)Cn1c(CCc2ccccc2)ccc(NC(=O)CCc2ccccc2)c1=O
16,110 to 112 °C,CCCC(=O)c1cnc2c(C)cccc2c1Nc1ccccc1C
17,235 to 239 °C,COc1ccc2c(c1C)CCc1ccc(-c3cccnc3)cc1C21N=C(N)N(C)C1=O (stereo unspecified)
18,138 to 141 °C,CCOc1ccc(C(=O)CCC(=O)Nc2cn(Cc3ccccc3)nc2-c2ccccc2)cc1

row,melting point,Structure (SMILES)
1,198 to 200 °C,O=C(NCCO)c1[nH]c2ccc(Cl)cc2c1S(=O)(=O)c1ccccc1
2,135 to 140 °C,COc1ccc2nccc([C@@H]3CN(CCCNS(=O)(=O)c4ccc5c(c4)NC(=O)CS5)C(=O)O3)c2c1
3,218 to 221 °C,COc1cccc(C23CC(=O)NC(=O)C2=CCC(C)C3)c1 (stereo unspecified)
4,215 to 217 °C,O=C1COc2ccc(C3=Cc4ccc(NCCCO)cc4OC3c3ccccc3)cc2N1 (stereo unspecified)
5,242 to 247 °C,CN1CCN(C(=O)c2ccc3cc(-c4csc(N(C)S(=O)(=O)c5ccccc5)n4)c(=O)[nH]c3c2)CC1
6,205 to 206 °C,COc1ccc2c(=O)n(S(=O)(=O)c3ccc(Cl)cc3)c(=O)[nH]c2c1
7,209 to 210 °C,O=C(O)c1cc(-n2c(-c3ccccc3)cc3c2CCCC3)cc(Br)c1O
8,133 to 136 °C,CC(C)n1nc(-c2c(OCC(=O)N(C)C)nc(N)nc2-c2ccccc2)ccc1=O
9,70 to 72 °C,CC[C@@H](c1ccccc1)N(Cc1ccc(C(=O)OC)cc1)S(=O)(=O)c1ccc(C(F)(F)F)cc1
10,173 to 175 °C,CCCCCN1C(=O)C2(COc3cc4c(cc32)OCO4)c2c(C(=O)Nc3cccc(OC)c3)cccc21 (stereo unspecified)
11,190 to 193 °C,CC(=O)Nc1cccc(NC(=O)C=C2CC(C(=O)O)Nc3cc(Cl)cc(Cl)c32)c1 (racemic)
12,164 to 165 °C,COc1ccc([C@@H]2OC(=O)N[C@@H]2Cc2ccc(C(F)(F)F)cc2)cc1 (racemic)
13,178 to 180 °C,Cc1cc(-n2ccc(OCc3ccc(OC(F)F)cc3)cc2=O)sc1C(=O)NCc1ccccc1
14,218 to 219 °C,COc1ccccc1N1CCN(CCCNC(=O)c2cc(N)cc3c(=O)c(C)c(-c4ccccc4)oc23)CC1
15,100 to 102 °C,CCCCCN(C(=O)Oc1ccc(C(=O)O)cc1)c1ccc2c(c1)C(C)(C)CCC2(C)C
16,85 to 87 °C,COC(=O)c1ccc(C(=O)OC)c(Nc2ccccc2)c1
17,147 to 149 °C,CCc1c(-c2ccc(O)cc2)c2ccc3c(N)ccc1n32
18,176 to 178 °C,Cc1cc(Cl)cc(NC(=O)Cc2ccc(O)cc2)c1
